SMILES strings stand for the structures.

Assay [1] concerns the target T1, TYK2-JH2 (aa 575-869, in-house) protein (Homo sapiens, UniProt P29597).
T1 construct: TYK2-JH2 (aa 575-869, in-house) protein; made in house
Briefly: TYK2-JH2 biochemical assay (HTRF probe displacement). The format is binding. The following applies: Biochemical assay; read-out: TYK2-JH2 IC50. On the procedure:
Assay A: TYK2-JH2 Biochemical Assay
Compounds disclosed herein were tested for blocking of TYK2-JH2 (aa 575-869, in-house) protein with its probe in an assay based on Homogeneous Time Resolved Fluorescence. Compound dilution is done according to the following protocol: (1) Prepare 500× compounds solution in DMSO from 500 uM by 5-fold dilution, total 10 doses were included; (2) Prepare 10× compounds solution in an assay buffer containing 20 mM HEPES, pH 7.5, 10 mM MgCl2, 0.005% BSA, 2 mM DTT, 0.015% Brij-35 by transferring 1 μl serial 500× stock solution into 49 μl assay buffer. […] of 0.2 nM recombinant TYK2-JH2 protein was pre-incubated with 1 μl of 10× serial dilution of compounds at room temperature for 0.5 hour. […] The HTRF signals (ex337 nm, em620 nm/665 nm) were read on BMG PHERAstar FS instrument. The inhibition percentage of TYK2 interaction with its probe in presence of increasing concentrations of compounds was calculated based on the ratio of fluorescence at 615 nm to that at 665 nm. The IC50 for each compound was derived from fitting the data to the four-parameter logistic equation by Dotmatics.
Background: In TR-FRET formats the signal depends on donor and acceptor labels being close together.

The subject of assay [2] is pSTAT5/GM-CSF. Briefly: pSTAT5/GM-CSF cellular assay (JAK2 selectivity). The class given is cell-based. As to conditions: for Selectivity fold (TYK2/JAK2): pSTAT5/GM-CSF IC50 over pSTAT4/IL-12 IC50.
Assay [3] has as its system JAK2, TYK2/p-STAT4 (Tyr693) activated by IL-12 in NK-92 cell line. Briefly: IL-12-JAK2, TYK2/p-STAT4 (Tyr693) inhibition IC50 cellular assay. The format is cell-based. As to conditions: for IC50: NK92, Cellular assay, read-out: pSTAT4/IL-12 IC50. From the text: Assay C: IL-12-JAK2, TYK2/p-STAT4 (Tyr693) Inhibition IC50 Cellular Assay
To evaluate the inhibition effect of compounds disclosed herein on JAK2, TYK2/p-STAT4 (Tyr693) activated by IL-12 in NK-92 cell line, NK-92 cells were collected and washed 3 times by DPBS and resuspended in MEM-α (GIBCO, Cat #12561056) with 10% FBS (Gibco, Cat #10099, Lot #1891605), without IL-2 (R&D systems, Cat #202-IL), starved overnight. Cells were collected and resuspended in 1640 medium (phenol red free, Gibco, Cat #11835-030) with 0.1% BSA, and 12.5 μl/5×10^4/well cell suspension were seeded to the 96-well plate (Corning, Cat #3799). Then cells were treated with compounds diluted in 0.2% DMSO 1640 medium, at 37° C., 1 h. Dilution is done according to the following protocol: (1) make 500× compounds solution in DMSO from 5 mM by 4-fold dilution, total 8 doses were included; (3) make 2× compounds solution in assay medium by transferring 0.5 μl serial 500× stock solution into 125 μl assay medium; (4) 15 μl of 2× serial solution is added to cells and incubate at 37° C. for 1 h, the final compound conc. is 10000, 2500, 625, 156.25, 39, 9.8, 2.4 and 0.61 nM, respectively. After 1 h, cells were treated with 2.5 μl medium containing IL-12 at 37° C. (R&D systems, Cat #219-IL-005, final conc. 40 ng/ml), 30 min. Following cells were lysed with 7.5 μl lysis buffer at RT, shaking on shaker for 1 h. 10 μL of cell lysate were transferred to a PE 384-well Proxiplate detection plate, and 5 μL of pre-mixed Alphascreen beads were added to each well. Covered the plate with a plate sealer, span 1000 rpm for 1 min, mix, Incubated overnight at room temperature. Read on BMG PheraStar with Alphascreen protocol. IC 50 values were calculated by fitting dependent data to the four-parameter logistic model using dotmatics software. The assay was performed by using AlphaLISA SureFire Ultra p-STAT4 (Tyr693) Assay Kit—High Volume (PE, Cat #ALSU-PST4-A-HV).

T1 sequence (P29597 575-869): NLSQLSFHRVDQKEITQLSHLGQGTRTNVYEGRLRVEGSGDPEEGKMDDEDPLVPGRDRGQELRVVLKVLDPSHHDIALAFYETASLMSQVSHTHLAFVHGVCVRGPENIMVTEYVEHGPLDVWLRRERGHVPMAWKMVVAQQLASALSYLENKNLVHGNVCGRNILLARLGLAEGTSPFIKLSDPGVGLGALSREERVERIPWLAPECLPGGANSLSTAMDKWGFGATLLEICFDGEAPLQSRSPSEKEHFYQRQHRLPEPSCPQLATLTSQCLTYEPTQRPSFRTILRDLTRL

Turning to `COC(C)c1cc(Nc2cc(NC(C)=O)ncc2-c2ccc(N3C[C@@H](C)O[C@@H](C)C3)cn2)nc(S(C)(=O)=O)c1` (single isomer, unassigned) [Example C19, N-(5-((cis)-2,6-dimethylmorpholino)-4′-((4-((R or S)-1-methoxyethyl)-6-(methylsulfonyl)pyridin-2-yl)amino)-[2,3′-bipyridin]-6′-yl)acetamide], in assay [1], the IC50 was 0.023 nM.

`COC(C)c1cc(Nc2cc(NC(C)=O)ncc2-c2ccc(N3C[C@@H](C)O[C@@H](C)C3)cn2)nc(S(C)(=O)=O)c1` (single isomer, unassigned) [Example C20, N-(5-((cis)-2,6-dimethylmorpholino)-4′-((4-((R or S)-1-methoxyethyl)-6-(methylsulfonyl)pyridin-2-yl)amino)-[2,3′-bipyridin]-6′-yl)acetamide]: the IC50 in assay [1] came to 0.023 nM.

With `CC(=O)Nc1cc(Nc2cccc(S(C)(=O)=O)n2)c(-c2cnn(C)c2)cn1` [Example A8, N-(5-(1-methyl-1H-pyrazol-4-yl)-4-((6-(methylsulfonyl)pyridin-2-yl)amino)pyridin-2-yl)acetamide], the IC50 in assay [1] stood at 0.26 nM.

Consider `CC(=O)Nc1cc(Nc2cc(C)cc(S(C)(=O)=O)n2)c(-c2ccn(CC(=O)N3CCOCC3)n2)cn1` [Example A13, N-(4-((4-methyl-6-(methylsulfonyl)pyridin-2-yl)amino)-5-(1-(2-morpholino-2-oxoethyl)-1H-pyrazol-3-yl)pyridin-2-yl)acetamide], for which the IC50 in assay [1] amounted to 0.08 nM.

As to `CC(=O)Nc1cc(Nc2cc(OC(C)C)cc(S(C)(=O)=O)n2)c(-n2ccnc2)cn1` [Example A18, N-(5-(1H-imidazol-1-yl)-4-((4-isopropoxy-6-(methylsulfonyl)pyridin-2-yl)amino)pyridin-2-yl)acetamide], the IC50 in assay [1] amounted to 8.15 nM.

`CC(=O)Nc1cc(Nc2cccc(S(C)(=O)=O)n2)c(-c2cccnc2)cn1` [Example B2, N-(4-((6-(methylsulfonyl)pyridin-2-yl)amino)-[3,3′-bipyridin]-6-yl)acetamide]: the IC50 in assay [1] is 5.8 nM.

As to `COCCOc1cc(Nc2cc(NC(C)=O)ncc2-c2ccccn2)nc(S(C)(=O)=O)c1` [Example B6, N-(4′-((4-(2-methoxyethoxy)-6-(methylsulfonyl)pyridin-2-yl)amino)-[2,3′-bipyridin]-6′-yl)acetamide], the IC50 in assay [2] is more than 10 µM; in assay [3], 1.21 nM. For the same compound, the “Selectivity fold (TYK2/JAK2)” value in assay [3] (Cellular assay, pSTAT5/GM-CSF IC50 vs pSTAT4/IL-12 IC50) is listed as more than 8264 fold.

Take `CC(=O)Nc1cc(Nc2cccc(S(C)(=O)=O)c2)c(-c2cc(C(C)(C)O)ccn2)cn1` [Example B9, N-(4-(2-hydroxypropan-2-yl)-4′-((3-(methylsulfonyl)phenyl)amino)-[2,3′-bipyridin]-6′-yl)acetamide]: the IC50 in assay [1] was 0.53 nM.

As to `CC(=O)Nc1cc(Nc2cc(C)cc(S(C)(=O)=O)n2)c(-c2cc(C(C)(C)O)ccn2)cn1` [Example B10, N-(4-(2-hydroxypropan-2-yl)-4′-((4-methyl-6-(methylsulfonyl)pyridin-2-yl)amino)-[2,3′-bipyridin]-6′-yl)acetamide], the IC50 in assay [1] worked out at 0.045 nM.

In the case of `CC(=O)Nc1cc(Nc2cccc(S(C)(=O)=O)c2)c(-c2ccc(N3CCOCC3)cn2)cn1` [Example B11, N-(4′-((3-(methylsulfonyl)phenyl)amino)-5-morpholino-[2,3′-bipyridin]-6′-yl)acetamide], the IC50 in assay [1] was 0.019 nM.

Take `CC(=O)Nc1cc(Nc2cc(C)cc(S(C)(=O)=O)c2)c(-c2ccc(C(F)(F)F)cn2)cn1` [Example F3, N-(4′-((3-methyl-5-(methylsulfonyl)phenyl)amino)-5-(trifluoromethyl)-[2,3′-bipyridin]-6′-yl)acetamide]: the IC50 in assay [1] stood at 0.068 nM.

Consider `CC(=O)Nc1cc(Nc2cc(C#N)cc(S(C)(=O)=O)c2)c(-c2ccc(C(F)(F)F)cn2)cn1` [Example F4, N-(4′-((3-cyano-5-(methylsulfonyl)phenyl)amino)-5-(trifluoromethyl)-[2,3′-bipyridin]-6′-yl)acetamide], for which the IC50 in assay [1] came out at 0.324 nM.

As for `CC(=O)Nc1cc(Nc2cc(O[C@H]3C[C@H](O)C3)cc(S(C)(=O)=O)c2)c(-c2ccc(C(F)(F)F)cn2)cn1` [Example F5, N-(4′-((3-((trans)-3-hydroxycyclobutoxy)-5-(methylsulfonyl)phenyl)amino)-5-(trifluoromethyl)-[2,3′-bipyridin]-6′-yl)acetamide], the IC50 in assay [1] is 0.061 nM.

For `CC(=O)Nc1cc(Nc2cc(OCC3CC3)cc(S(C)(=O)=O)c2)c(-c2ccc(C(F)(F)F)cn2)cn1` [Example F6, N-(4′-((3-(cyclopropylmethoxy)-5-(methylsulfonyl)phenyl)amino)-5-(trifluoromethyl)-[2,3′-bipyridin]-6′-yl)acetamide], the IC50 in assay [1] is 0.532 nM.

Regarding `CC(=O)Nc1cc(Nc2cc(OCCO)cc(S(C)(=O)=O)c2)c(-c2ccc(C(F)(F)F)cn2)cn1` [Example F7, N-(4′-((3-(2-hydroxyethoxy)-5-(methylsulfonyl)phenyl)amino)-5-(trifluoromethyl)-[2,3′-bipyridin]-6′-yl)acetamide], the IC50 in assay [1] was 0.085 nM.

For the compound `COCCOc1cc(Nc2cc(NC(C)=O)ncc2-c2ccc(C(F)(F)F)cn2)cc(S(C)(=O)=O)c1` [Example F8, N-(4′-((3-(2-methoxyethoxy)-5-(methylsulfonyl)phenyl)amino)-5-(trifluoromethyl)-[2,3′-bipyridin]-6′-yl)acetamide], in assay [1], the IC50 was found to be 0.087 nM.

Turning to `CC(=O)Nc1cc(Nc2nc(S(C)(=O)=O)ccc2C2CCOCC2)c(-c2ccc3c(n2)OCC(C)(C)O3)cn1` [Example Q90, N-(5-(2,2-dimethyl-2,3-dihydro-[1,4]dioxino[2,3-b]pyridin-6-yl)-4-((6-(methylsulfonyl)-3-(tetrahydro-2H-pyran-4-yl)pyridin-2-yl)amino)pyridin-2-yl)acetamide], in assay [2], the IC50 is more than 10 µM and the “Selectivity fold (TYK2/JAK2)” value is more than 227 fold. Further, the IC50 in assay [3] stood at 44 nM.

For the compound `CC(=O)Nc1cc(Nc2cc(N3CCC4(CC4)C3)cc(S(C)(=O)=O)n2)c(-c2ccc3c(n2)OCC(C)(C)O3)cn1` [Example Q97, N-(5-(2,2-dimethyl-2,3-dihydro-[1,4]dioxino[2,3-b]pyridin-6-yl)-4-((6-(methylsulfonyl)-4-(5-azaspiro[2.4]heptan-5-yl)pyridin-2-yl)amino)pyridin-2-yl)acetamide], in assay [2], the IC50 is more than 10 µM and the “Selectivity fold (TYK2/JAK2)” value is more than 3039 fold. For the same compound, the IC50 in assay [3] amounted to 3.29 nM.

With `CC(=O)Nc1cc(Nc2cc(-c3ccc(C#N)nc3)cc(S(C)(=O)=O)n2)c(-c2ccc3c(n2)OCC(C)(C)O3)cn1` [Example Q108, N-(4-((6-cyano-6′-(methylsulfonyl)-[3,4′-bipyridin]-2′-yl)amino)-5-(2,2-dimethyl-2,3-dihydro-[1,4]dioxino[2,3-b]pyridin-6-yl)pyridin-2-yl)acetamide], in assay [2], the IC50 is more than 10 µM and the “Selectivity fold (TYK2/JAK2)” value was more than 8474 fold. Besides, in assay [3], the IC50 was 1.18 nM.

As to `CC(=O)Nc1cc(Nc2cc(-c3nccnc3C)cc(S(C)(=O)=O)n2)c(-c2ccc3c(n2)OCC(C)(C)O3)cn1` [Example Q110, N-(5-(2,2-dimethyl-2,3-dihydro-[1,4]dioxino[2,3-b]pyridin-6-yl)-4-((4-(3-methylpyrazin-2-yl)-6-(methylsulfonyl)pyridin-2-yl)amino)pyridin-2-yl)acetamide], in assay [2], the IC50 is more than 10 µM and the “Selectivity fold (TYK2/JAK2)” value is given as more than 9259 fold. In addition, the IC50 in assay [3] worked out at 1.08 nM.

Values taken from US20240043435A1, “TYK-2 INHIBITOR” (BEIGENE, LTD., priority 2020, published 2024).
